The record followed here is a melting point compilation (Tetko et al.; mined from patent text by program, amines drawn as free bases though some values may be those of a salt).

For orientation: melting point means the temperature of the solid-liquid transition.

A value given as a limit tells only on which side of the number the result lay.

Turning to `COc1ccc(N2CCN(S(=O)(=O)[C@H](C)[C@](O)(Cn3cncn3)c3ccc(F)cc3F)CC2)cc1`, the melting point was in the range of 190 to 191 °C.
Turning to `CCC1(CCSC(C)=O)C(=O)N2CCCC(C(=O)OC(C)(C)C)N2C1=O` (centres undefined), the melting point was in the range of 82 to 84 °C.
Under `CNC(=O)c1ccc(N2CCN(Cc3cc4c(c(-c5ccccc5)c3)OC(C)C(=O)N4)CC2)cc1` (centres undefined) stands 185 to 189 °C; under `CC(C)NOP(=O)(O)C(C(C)C)N(CC(=O)OCCCl)C(=O)C(F)(F)F` (centres undefined), 87.5 to 89 °C.
Next, `O=C(c1cc(Cl)cc(Cl)c1)N1CCN(Cc2ccccc2)C[C@H]1Cc1c[nH]c2ccccc12`: 93 to 98 °C.
Under `O=C(N[C@@H]1CONC1=O)OCc1ccccc1` stands 135 to 136 °C.
In turn, `CC(O)C1CCC(CNC(=O)OCc2ccccc2)CC1` (centres undefined) registered a melting point of 83 to 84 °C.
Next, `CC1(C)Oc2ccc(S(=O)(=O)C(F)(F)F)cc2[C@@H](N2Cc3ccc([N+](=O)[O-])cc3C2=O)[C@@H]1O` (relative stereo): 264 to 266 °C; `COc1ccccc1[C@@]1(O)[C@H](O)CC(c2ccccc2)(c2ccccc2)[C@@H]2CN(C(=O)Cc3cn(C)c4ccccc34)C[C@@H]21` (racemic): 240 °C; `CCOC(=O)c1cc(-c2ccccc2)oc1C(F)(F)F`: 44 to 45 °C.
Under `O=C(NCCCN1CCN(c2cccc(Cl)c2)CC1)NC12CC3CC(CC(C3)C1)C2` stands 174 to 175 °C; under `O=C1OC(=O)c2cc3cc(Cl)ccc3cc21`, 220 °C.
Compound `COC(=O)C1(O)CC(CO)=NN1c1ncccc1Cl` (centres undefined) came in with a melting point of 111 to 113 °C.
For the compound `Cc1oc(-c2ccccc2)nc1COc1ccc(CCCC2OC(=O)NC2=O)cc1F` (centres undefined), the melting point fell in the range of 180 to 181 °C.
Under `O=S(=O)(Nc1cnc(-n2ccnc2)nc1NCc1ccc(Br)cc1)c1ccc(Cl)cc1` stands 183 to 185 °C; under `CCc1ccc(S(=O)(=O)NC(C)(C)C)o1`, 71 to 72 °C; under `Cc1ccc(-n2nc(C(=O)CCCO)cc2-c2ccc(S(C)(=O)=O)cc2)cc1`, 159 to 161 °C.
Next, `CNC(=O)c1ccc(C(=O)O)cc1`: 270 °C; `CCCc1nc2cccc(C(=O)OC)c2n1Cc1ccc(-c2ccccc2C(=N)NOC(C)=O)cc1`: 177 to 178 °C; `NC(=O)CCCCCc1ccc(Cl)cc1`: 87 to 89 °C.
Under `CCCCOC(=O)CNC(=O)c1nc2ccc(OCCCC)cc2cc1OCc1ccccc1` stands 99 to 101 °C; under `Cc1cc2c(cc1O)C(C)(C)CCC2(C)C`, 122 to 123 °C.
Turning to `CCCc1nc2cccc(C(=S)OC)c2n1Cc1ccc(-c2ccccc2-c2nc(=O)o[nH]2)cc1`, the melting point lay in the range of 220 to 221 °C.
Regarding `N#Cc1ccc(OCc2ccncc2)cc1OC(C(=O)O)c1ccccc1Cl` (racemic), the melting point lay within 225 to 226 °C.
Under `CC(=NOCCc1ccc(C)cc1)C(=O)O` stands 106 to 108 °C; under `Cc1nnc(NCCC2CCCN2C)c2cc3ccccn3c12` (centres undefined), 169 °C.
Next, `CS(=O)(=O)c1ccc(-c2cccn2-c2ccc3c(c2)OCO3)cc1`: 172 to 175 °C.
Under `Nc1nc2ccccc2c2c1nc(CCCOc1ccccc1)n2CCCNC(=O)N1CCOCC1` stands 199 to 200 °C; under `CC(=O)SCc1ccc([N+](=O)[O-])cc1[N+](=O)[O-]`, 78 to 79 °C; under `COc1ccc(-c2csc(N(C(C)=O)c3cc4ccccc4cn3)n2)cc1OC`, 164 to 165 °C.
The compound `CN(C)C=Cc1ccc([N+](=O)[O-])c(OCc2ccccc2)c1` yielded a melting point of 111 to 114 °C.
Next, `Cc1ccc(C)n1Nc1ccc(N2CCSCC2)nn1`: 203 °C; `O=C(O)COc1cccc2c1CC(SCc1ccccc1)c1sc(-c3ccc4ccccc4c3)nc1-2` (centres undefined): 118 to 121 °C; `Cc1oc(-c2ccccc2)nc1COc1ccc(CO)nc1`: 125 to 126 °C.
Next, `C1COCCOCCOCCNCCOCCOCCOCCN1`: 15 °C; `CC[C@H]1[C@H](O)[C@@H](C)C(=O)N1c1ccc(C#N)c(Cl)c1`: 120 to 123 °C; `CCn1cc(-c2cccc(C(F)(F)F)c2)c(=O)n1-c1ccc(F)cc1`: 92 °C.
Take `Cc1[nH]c(=O)[nH]c1C(N)=O`: the melting point is above 300 °C.
As for `O=Cc1ccc(-c2ccccc2)cc1Cl`, the melting point lay in the range of 90 to 91 °C.
Next, `O=C1NC(=O)c2cc(NC3CCCCC3)c(NC3CCCCC3)cc21`: 170 to 175 °C.
Next, `O=C(CCC(=O)N(CCO)CCO)N(CCO)CCO`: 89 to 91 °C; `NCCCCCCCCOc1cccc2ccccc12`: 90.5 to 92 °C; `COc1cccc(Cn2c(C(=O)O)c(-c3ccc(OCC4CC4)cc3)c3cc(OCc4ccccc4)ccc32)c1`: 185 to 187 °C.
Next, `CC(C)(C)c1cc(Nc2ccccc2C=O)cc(C(C)(C)C)c1O`: 105 to 107 °C.
For `CCOC(=O)c1ccc(NC(=O)C=C(c2ccc(C)cc2)c2ccc(C)cc2)cc1`, the melting point lay within 151 to 154 °C.
Under `O=C(O)CCc1cn(Cc2cccc(C(=O)Nc3cccnc3)c2)nc1-c1ccccc1` stands 131 to 132 °C.
Under `CC(=O)c1cc([N+](=O)[O-])c(F)cc1Cl` stands 66 to 68 °C; under `CSc1nn(C(=O)NS(=O)(=O)c2ccccc2OC(F)(F)F)c(=O)n1N`, 136 °C.
Next, `O=C(Nc1ccccc1)c1ccc(OC(F)(F)F)c(Nc2cccc(C(F)(F)F)c2)c1`: 129 to 130 °C; `CS(=O)(=O)c1ccccc1OC(F)(F)F`: 44 to 46 °C.
As to `CCOC(=O)c1ccc(-c2cc3c(NCCCN4CCOCC4)ncnc3[nH]2)cc1`, the melting point fell in the range of 231 to 234 °C.
Next, `NCc1cccc(OCCSc2nc[nH]n2)c1`: above 300 °C; `CN(C)CCNC(=O)c1cn(C)c(=O)c2cc3cccnc3nc12`: 218 to 221 °C; `COc1ccc(C(=O)Nc2ccc3ccc(Oc4cccc(F)c4)nc3n2)cc1`: 151 °C.
Under `COC(=O)CCC(=O)c1ccc(-c2ccccc2F)cc1` stands 75.5 to 77.5 °C; under `CCc1ccc(-c2ccc(C(=O)Nc3cc4ncc(CN5CCCC5)cc4cc3C)cc2)cc1`, 188 °C.
Next, `O=c1cc(C=Cc2ccc(O)cc2)oc(-c2ccccc2)c1`: 198 to 201 °C; `CN(C)C=Cc1ccncc1C#N`: 80 to 83 °C.
`CS(=O)(=O)c1ccc(-n2cnc(Cl)c2-c2cnc(Cl)c(Cl)c2)cc1` returned a melting point of 223 to 230 °C.
Take `NC(=O)N(O)Cc1cc(Oc2ccc(Cl)cc2)cs1`: the melting point lay in the range of 141 to 142 °C.
Next, `CCCC1CCC(c2ccc(-c3cc(F)c(F)c(F)c3C=O)cc2)CC1` (centres undefined): 62 °C; `N#Cc1ccnc(C=Cc2ccccc2)n1`: 147 to 150 °C.
Under `CC(=O)c1ccc2c(c1)SC(C)(C)S2` stands 75 to 76 °C.
Under `Nc1cc(-n2cc(C(=O)O)c(=O)c3cc(F)c(F)c(Cl)c32)cnc1Cl` stands 277 to 281 °C; under `CCC(=O)N(Cc1cccc2c1S(=O)(=O)N=C2C1=C(O)C(C(C)(C)C)N(Cc2ccc(F)c(C)c2)C1=O)S(C)(=O)=O` (centres undefined), 98 to 99.8 °C; under `CN1CC2(OCCO2)c2ccc3ccccc3c2S1(=O)=O`, 169 to 171 °C.
Consider `O=C(NCC12CC3CC(CC(C3)C1)C2)c1c(Cl)ccc2nc(N3C[C@@H]4C(C(=O)O)[C@@H]4C3)ccc12` (some centres undefined), for which the melting point fell in the range of 175 to 180 °C.
Next, `O=S(=O)(Nc1cccc(I)c1)C(F)(F)F`: 75 to 77 °C.
Under `O=S(=O)(c1ccccc1)S(=O)(=O)c1ccccc1` stands 142 to 144 °C.
Under `CN(C(=S)Nc1ccc(NNC=O)cc1)c1ccccc1` stands 137 to 139 °C; under `O=C(O)CCCCCOC(=O)n1c(-c2cscn2)nc2ccccc21`, 79 to 81 °C; under `O=C1N(Cc2ccccn2)c2ccccc2C12COc1cc3c(c(-c4ccoc4)c12)CCO3` (centres undefined), 195 to 197 °C.
Consider `Cn1nc2cccc(Cl)c2c1S(N)(=O)=O`, for which the melting point fell in the range of 173 to 175 °C.
`CS(=O)(=O)Nc1ccccc1OC1CCCCC1` registered a melting point of 113 to 115 °C.
`CC1C(=O)N(c2ccc(Oc3ccccc3)cc2)C(=S)N1Cc1ccccc1` (centres undefined) gave a melting point of 138 °C.
Under `Cc1cccc(C(C)(C)CC(O)(C(=O)Nc2ccc3c(c2)COC3=O)C(F)(F)F)c1` (centres undefined) stands 152 to 153 °C.
Compound `COC(=O)Cc1c(C(=O)OC)ccn1CCOS(C)(=O)=O` had a melting point of 99 to 101 °C.
Under `CC(C)Nc1cccnc1N1CCN(C(=O)c2ccc(C(=O)NCCN(C)C)cc2)CC1` stands 133 °C.
Under `COc1ccc(-c2ccc(-c3ccc(C)cc3)s2)s1` stands 108 to 111 °C; under `O=c1ccsc2c3ccccc3n(CCN3CCOCC3)c12`, 136 to 137 °C.
Next, `C=CCNc1cc(F)ccc1C(=O)O`: 136 to 139 °C.
On to `Cc1cc(C(=O)N2Cc3cccn3Cc3ccccc32)ccc1-c1ccncc1`, for which the melting point was 208 to 210 °C.
Regarding `CCC(CC)NC(=O)C[C@@H](C(=O)NC[C@@H](O)[C@H](Cc1ccccc1)NC(=O)[C@@H](NC(=O)c1ccc2ccccc2n1)[C@@H](C)O)C(C)(C)C`, the melting point is 110 to 125 °C.
Next, `CCc1noc(-c2c[nH]c(-c3cccc(Oc4ccc(Br)cn4)c3)n2)n1`: 141 to 142 °C.
Under `O=C(O)CCCCN1C(=O)c2cccc([N+](=O)[O-])c2C1=O` stands 158 to 160 °C; under `O=C(c1ccccc1)c1ccc(OCc2nnn[nH]2)c(Cl)c1Cl`, 184 to 186 °C.
Next, `COc1ccc2c(c1)C(=O)C(Cc1ccccc1)CN2S(=O)(=O)c1ccc(C)cc1` (centres undefined): 101 to 103 °C; `CSC1C(=O)Nc2ccc(-c3ccccc3)cc21` (centres undefined): 170 to 172 °C; `CCCC1CCC(O)(c2ccc(-c3ccccc3)c(F)c2)CC1` (centres undefined): 45 to 72 °C.
